Assay results as given in patent US8986733B2, “Materials and methods for nerve repair” (University of Florida Research Foundation, Inc., priority 2001, dated 2015).

What was measured:
[1] = system: embryonic chick DRG neurons; test: Cryoculture bioassay on sections of acellular rat nerve segments; format: cell-based
Description: (§1) Cryoculture bioassay. Cryoculture is a neurite outgrowth assay in which neurons are cultured directly on fresh/frozen nerve sections and was performed as described previously (Ferguson T A et al. [2000] Mol Cell Neurosci, 16:157-167). Briefly, chondroitinase- and vehicle-treated nerve segments were sectioned at 20 μm, mounted on sterile, aminopropyltriethoxysilane (APTS)-coated coverslips and stored at −20° C. until used. Where indicated, sections were treated with chondroitinase ABC (0.1 unit/ml) or vehicle (50 mM Tris-HCl, pH 8.0), containing 50 mM NaCl) for 2 h at 37° C. Purified dorsal root ganglionic (DRG) neurons from day 8 chick embryos were seeded directly on the nerve sections in a defined N2 medium (Bottenstein J E et al. [1980] Exp Cell Res 125:183-190) containing 10 ng/ml nerve growth factor. […] Neurite lengths were measured directly using IMAGE-PRO PLUS software (MEDIA CYBERNETICS, Silver Springs, Md.). At least 250 neurons with neurites greater than one cell body (˜15 μm) were scored for each condition in each experiment.
Inactivation of inhibitory CSPG in chondroitinase-treated acellular nerve was determined by cryoculture bioassay. Embryonic chick DRG neurons were seeded onto sections of prepared nerve segments and the neurite-promoting activity was assessed by scoring neurite growth. […]

[2] = system: chick DRG neurons; test: Cryoculture assay using human nerve segments; format: cell-based; settings: DRG neurons 24 h on treated human nerve sections
Description: Human nerves were treated with chondroitinase and then assayed for neurite-promoting activity. Dissociated chick DRG neurons were grown on the sections for 24 h and neurite lengths were scored. Results are expressed as means (−SEM). Statistical significance (P<0.001) comparing vehicle-treated and chondroitinase-treated conditions was found using Student's t test.
as §1, with “C.” for “C. Purified dorsal root ganglionic (DRG) neurons from day 8 chick embryos were seeded directly on the nerve sections in a defined N2 medium (Bottenstein J E et al. [1980] Exp Cell Res 125:183-190) containing 10 ng/ml nerve growth factor.”, “experiment. […]” for “experiment.”

Substance: chondroitinase ABC
- effect of post-treatment on neurite-promoting activity ([1]; sections from en bloc chondroitinase-treated nerve grafts): only a slight additive effect
- increase in neurite-promoting activity by post-treatment of sections ([1]; sections of acellular nerve treated en bloc with vehicle only, post-treated after sectioning): 86%
- growth-promoting properties of human nerves (neurite length) [2]: increased
